Structures can show the parent of a compound that is named as a salt. Where only a bound is given, the exact number is not on record here.

Chain of Cdc7/Dbf4 (O00311 whole entry): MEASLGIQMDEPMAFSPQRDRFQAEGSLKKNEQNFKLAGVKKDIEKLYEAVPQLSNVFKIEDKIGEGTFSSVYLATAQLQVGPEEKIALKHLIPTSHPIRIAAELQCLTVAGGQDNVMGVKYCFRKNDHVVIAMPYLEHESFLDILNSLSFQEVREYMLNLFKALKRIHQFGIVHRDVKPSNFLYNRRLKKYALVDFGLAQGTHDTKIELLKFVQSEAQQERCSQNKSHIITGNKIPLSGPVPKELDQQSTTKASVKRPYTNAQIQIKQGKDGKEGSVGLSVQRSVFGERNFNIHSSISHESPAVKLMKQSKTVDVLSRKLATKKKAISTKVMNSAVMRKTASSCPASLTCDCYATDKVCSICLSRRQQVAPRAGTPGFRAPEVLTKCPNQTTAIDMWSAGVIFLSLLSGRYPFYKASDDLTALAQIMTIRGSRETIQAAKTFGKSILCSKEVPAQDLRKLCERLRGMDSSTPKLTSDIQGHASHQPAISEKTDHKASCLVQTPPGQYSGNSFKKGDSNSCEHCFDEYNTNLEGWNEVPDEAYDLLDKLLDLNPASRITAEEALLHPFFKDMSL
Chain of Cdc7/Dbf4 (Q9UBU7 whole entry partner): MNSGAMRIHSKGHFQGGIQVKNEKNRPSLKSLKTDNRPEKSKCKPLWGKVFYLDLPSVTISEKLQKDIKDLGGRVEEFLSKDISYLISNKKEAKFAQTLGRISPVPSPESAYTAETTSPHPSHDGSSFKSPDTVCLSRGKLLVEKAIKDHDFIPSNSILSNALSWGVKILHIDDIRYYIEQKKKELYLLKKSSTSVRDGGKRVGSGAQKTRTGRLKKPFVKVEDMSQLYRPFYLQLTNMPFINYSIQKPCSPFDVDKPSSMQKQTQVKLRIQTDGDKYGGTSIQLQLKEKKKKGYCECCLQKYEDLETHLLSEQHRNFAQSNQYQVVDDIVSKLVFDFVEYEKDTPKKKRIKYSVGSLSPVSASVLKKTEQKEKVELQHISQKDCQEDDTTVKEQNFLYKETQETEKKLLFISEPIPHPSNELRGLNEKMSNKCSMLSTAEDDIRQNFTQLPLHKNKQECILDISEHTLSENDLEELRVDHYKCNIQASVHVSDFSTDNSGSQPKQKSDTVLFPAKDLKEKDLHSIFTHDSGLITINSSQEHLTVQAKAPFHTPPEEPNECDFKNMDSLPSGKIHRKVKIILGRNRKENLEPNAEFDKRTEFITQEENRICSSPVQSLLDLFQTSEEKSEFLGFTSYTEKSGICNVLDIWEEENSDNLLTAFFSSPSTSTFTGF

The first test has as its target Cdc7/Dbf4 (Homo sapiens, UniProt O00311). As to the kind of experiment: Inhibition assay of Cdc7/Dbf4 activity (Dowex resin capture, 33P-ATP, MCM2 substrate). Particulars: MCM2 6 μM, ATP 2 μM, enzyme 2 nM, 60 min rt. The test is classed as biochemical. How it is done: Inhibition Assay of Cdc7 Activity
The inhibiting activity of putative Cdc7 inhibitors and the potency of selected compounds is determined through a method of assay based on the use of Dowex resin capture technology.
The assay consists of the transfer of radioactivity labeled phosphate moiety by the kinase to an acceptor substrate. The resulting 33P-labeled product is separated from unreacted tracer, transferred into a scintillation cocktail and light emitted is measured in a scintillation counter.
The inhibition assay of Cdc7/Dbf4 activity is performed according to the following protocol.
The MCM2 substrate is trans-phosphorylated by the Cdc7/Dbf4 complex in the presence of ATP traced with γ^33-ATP. The reaction is stopped by addition of Dowex resin in the presence of formic acid. Dowex resin particles capture unreacted γ^33-ATP and drag it to the bottom of the well while ^33P phosphorylated MCM2 substrate remains in solution. The supernatant is collected, transferred into Optiplate plates and the extent of substrate phosphorylation is evaluated by β counting.
The inhibition assay of Cdc7/Dbf4 activity was performed in 96 wells plate according to the following protocol.
To each well of the plate were added: • 10 μl test compound (10 increasing concentrations in the nM to uM range to generate a dose-response curve). The solvent for test compounds contained 3% DMSO. (final concentration 1%) • 10 μl substrate MCM2 (6 μM final concentration), a mixture of cold ATP (2 μM final concentration) and radioactive ATP (1/5000 molar ratio with cold ATP). • 10 μl enzyme (Cdc7/Dbf4, 2 nM final concentration) that started the reaction. The buffer of the reaction consisted in 50 mM HEPES pH 7.9 containing 15 mM MgCl2, 2 mM DTT, 3 uM NaVO3, 2 mM glycerophosphate and 0.2 mg/ml BSA. • After incubation for 60 minutes at room temperature, the reaction was stopped by adding to each well 150 μl of Dowex resin in the presence of 150 mM formic acid. After other 60 min incubation, 50 μl of suspension were withdrawn and transferred into 96-well OPTIPLATEs containing 150 μl of MicroScint 40 (Packard); after 5-10 minutes shaking the plates were read for 1 min in a Packard TOP-Count radioactivity reader.
IC50 determination: inhibitors were tested at different concentrations ranging from 0.0005 to 10 μIM. Experimental data were analyzed by the computer program Assay Explorer using the four parameter logistic equation: y=bottom+(top−bottom)/(1+10^((log IC50−x)*slope)) where x is the logarithm of the inhibitor concentration, y is the response; y starts at bottom and goes to top with a sigmoid shape.
A word on the IC50: it is the concentration at which inhibition is half-maximal. Low values mean greater potency in that assay, high ones weaker potency in that assay. The compound `NC(=O)c1c(-c2ccccc2)[nH]c2c1ccc1cnc(N)nc12` [N9, 8-Amino-2-phenyl-1H-1,7,9-triaza-cyclopenta[a]naphthalene-3-carboxylic acid amide] displayed a half-inhibitory concentration (IC50) of less than 100 nM.

With `NC(=O)c1c[nH]c2c1CCc1cnccc1-2` [E10, 4,5-Dihydro-1H-pyrrolo[2,3-f]isoquinoline-3-carboxylic acid amide], the half-inhibitory concentration (IC50) was less than 1000 nM.

`NC(=O)c1c(-c2ccncc2)[nH]c2c1ccc1cnccc12` [H3, 2-Pyridin-4-yl-1H-pyrrolo[2,3-f]isoquinoline-3-carboxylic acid amide] returned an IC50 of less than 100 nM.

Compound `O=C(O)c1cc2c([nH]1)-c1ccncc1CC2` [L2, 4,5-Dihydro-1H-pyrrolo[2,3-f]isoquinoline-2-carboxylic acid] yielded an IC50 of less than 1000 nM.

The compound `NC(=O)c1c(-c2ccccc2)[nH]c2c1ccc1cnccc12` [G3, 2-Phenyl-1H-pyrrolo[2,3-f]isoquinoline-3-carboxylic acid amide] yielded an IC50 of less than 100 nM.

For `NC(=O)c1c(-c2ccc(Br)cc2)[nH]c2c1ccc1cnccc12` [G6, 2-(4-Bromo-phenyl)-1H-pyrrolo[2,3-f]isoquinoline-3-carboxylic acid amide], the IC50 is less than 100 nM.

In the case of `Cn1c(Cl)c(C(N)=O)c2ccc3[nH]ncc3c21` [C1, 2-Chloro-1-methyl-1,6-dihydro-1,6,7-triaza-as-indacene-3-carboxylic acid amide], the half-inhibitory concentration (IC50) was less than 100 nM.

Compound `O=Cc1c(-c2ccc(N3CCOCC3)cc2)[nH]c2c1ccc1cnccc12` [G7, 2-(4-Morpholin-4-yl-phenyl)-1H-pyrrolo[2,3-f]isoquinoline-3-carbaldehyde] returned an IC50 of less than 1000 nM.

Compound `CCOC(=O)c1c(Br)[nH]c2c1CCc1cnccc1-2` [F1, 2-Bromo-4,5-dihydro-1H-pyrrolo[2,3-f]isoquinoline-3-carboxylic acid ethyl ester hydrobromide] had a concentration for half-maximal inhibition (IC50) of less than 1000 nM.

The compound `O=C(O)c1c[nH]c2c1CCc1cnccc1-2` [E6, 4,5-Dihydro-1H-pyrrolo[2,3-f]isoquinoline-3-carboxylic acid] registered an IC50 of less than 1000 nM.

For the compound `Cn1c(-c2ccccc2)c(C(N)=O)c2ccc3cnc(N)nc3c21` [N10, 8-Amino-1-methyl-2-phenyl-1H-1,7,9-triaza-cyclopenta[a]naphthalene-3-carboxylic acid amide], the 50% inhibitory concentration (IC50) was less than 100 nM.

`Cn1c(-c2ccccc2)c(C(N)=O)c2ccc3n[nH]cc3c21` [C2, 1-Methyl-2-phenyl-1,7-dihydro-1,6,7-triaza-as-indacene-3-carboxylic acid amide]: the concentration for half-maximal inhibition (IC50) is less than 100 nM.

Consider `Cn1c2c(c(C(N)=O)c1-c1ccccc1)CCc1cnc(N)nc1-2` [N4, 8-Amino-1-methyl-2-phenyl-4,5-dihydro-1H-1,7,9-triaza-cyclopenta[a]naphthalene-3-carboxylic acid amide], for which the IC50 is less than 1000 nM.

As to `Cn1cc(C(N)=O)c2ccc3n[nH]cc3c21` [B3, 1-Methyl-1,7-dihydro-1,6,7-triaza-as-indacene-3-carboxylic acid amide], the IC50 is less than 100 nM.

In turn, `Cc1ccccc1-c1c(C(N)=O)c2c(n1C)-c1ccncc1CC2` [F5, 1-Methyl-2-o-tolyl-4,5-dihydro-1H-pyrrolo[2,3-f]isoquinoline-3-carboxylic acid amide] had an IC50 of less than 100 nM.

`O=C(O)c1c(-c2ccc(Br)cc2)[nH]c2c1ccc1cnccc12` [G5, 2-(4-Bromo-phenyl)-1H-pyrrolo[2,3-f]isoquinoline-3-carboxylic acid] came in with a half-inhibitory concentration (IC50) of less than 100 nM.

In turn, `Cn1cc(C(=O)O)c2ccc3[nH]ncc3c21` [B2, 1-Methyl-1,6-dihydro-1,6,7-triaza-as-indacene-3-carboxylic acid] showed a 50% inhibitory concentration (IC50) of less than 100 nM.

Compound `O=Cc1c(-c2ccncc2)[nH]c2c1ccc1cnccc12` [H1, 2-Pyridin-4-yl-1H-pyrrolo[2,3-f]isoquinoline-3-carbaldehyde] returned a half-inhibitory concentration (IC50) of less than 100 nM.

In the case of `O=C(O)c1cn(CC(F)(F)F)c2c1CCc1cnccc1-2` [E7, 1-(2,2,2-Trifluoroethyl)-4,5-dihydro-1H-pyrrolo[2,3-f]isoquinoline-3-carboxylic acid], the IC50 was less than 1000 nM.

The target in a further test is AKT-1 (Homo sapiens, UniProt P31749). Kind of test: AKT kinase inhibition assay: Dowex technique (AKT1, Aktide substrate). The settings on record: AKT1 5 nM, Aktide 30 μM, ATP 132 μM, 60 min rt. The test is classed as biochemical. From the text: Method for AKT Kinase Inhibition Assay: Dowex Technique
Chain of AKT-1 (P31749 whole entry): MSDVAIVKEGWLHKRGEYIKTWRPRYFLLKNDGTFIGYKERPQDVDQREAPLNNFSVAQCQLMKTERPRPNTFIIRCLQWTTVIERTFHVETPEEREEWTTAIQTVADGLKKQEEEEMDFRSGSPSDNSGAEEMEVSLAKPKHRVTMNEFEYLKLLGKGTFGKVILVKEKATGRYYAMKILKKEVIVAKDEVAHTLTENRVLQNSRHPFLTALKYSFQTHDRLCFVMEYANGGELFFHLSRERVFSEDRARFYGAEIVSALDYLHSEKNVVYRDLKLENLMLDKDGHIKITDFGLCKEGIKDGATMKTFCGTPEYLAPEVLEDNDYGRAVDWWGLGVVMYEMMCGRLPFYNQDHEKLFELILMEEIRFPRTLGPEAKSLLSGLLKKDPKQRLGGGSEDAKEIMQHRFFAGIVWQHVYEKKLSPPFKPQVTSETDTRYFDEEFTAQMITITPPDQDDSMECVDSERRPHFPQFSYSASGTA
General Principle for Kinase Inhibition Assays
Specific peptide or protein substrates are trans-phosphorylated by their specific serine -threonine or tyrosine kinase, in the presence of ATP traced with ^33Pγ-ATP, and in the presence of their own optimal buffer and cofactors.
At the end of the phosphorylation reaction, more than 98% cold ATP and radioactive ATP is captured by an excess of the ion exchange dowex resin; the resin then settles down to the bottom of the reaction plate by gravity.
Supernatant, containing the phosphorylated substrate, is subsequently withdrawn and transferred into a counting plate, then evaluated by β-counting.
• TRIS 50 mM, pH 7.5 • MgCl2 10 mM • DTT 1 mM • NaVO3 […] • BSA 0.2 mg/ml • Assay conditions (final concentrations) for AKT1 • Enzyme concentration (AKT1)=5 nM • Substrate concentration (Aktide, 14 residues peptide, from PRIMM)=30 μM • ATP=132 μM • ^33P-γ-ATP=0.88 nM Robotized Dowex Assay
The “test” mixture consisted of: • 1) 3× Enzyme mix (done in Kinase Buffer 3×), 5 μl/well • 2) 3× substrate and ATP mix (done in DDH2O), together with ^33P-γ-ATP, 5 μl/well • 3) 3× test compounds (diluted into DDH2O-3% DMSO)-5 μl/well Dilution of Compounds
Test compounds are received as 100% DMSO solution at the indicated concentrations: • i—for % inhibition studies, individual dilution plates at 1 mM, 100 μM and 10 μM are prepared in 100% DMSO, then diluted at a 3× concentration (30, 3 and 0.3 μM) in DDH2O, 3% DMSO. A Multimek 96 (Beckman) is used for dilutions and compound pipetting into the test plates • ii—for IC50 determination, compounds are received as 1 mM, 100% DMSO solutions, plated into the first column of a microtiter plate (A1 to G1), 100 μl.
Well H1 is left empty for the internal standard inhibitor, staurosporine.
A Biomek 2000 (Beckman) is used for serial 1:3 dilutions in water, 3% DMSO, from column A1 to A10 and for all the seven compounds in the plate. In a standard experiment, the highest concentration of all compounds is 30 μM, then diluted in the final test mixture down to 10 μM.
384-well plates, V bottom (test plates) are prepared with 5 μl of the compound dilution (3×) and then placed onto a PlateTrak 12 robotized station (Perkin Elmer; the robot has one 384-tips pipetting head for starting the assay plus one 96-tips head for dispensing the resin) together with one reservoir for the Enzyme mix (3×) and one for the ATP mix (3×).
At the start of the run, the robot aspirates 5 μl of ATP mix, makes an air gap inside the tips (3 μl) and aspirates 5 μl of AKT mix. The following dispensation into the plates allows the kinase reaction to start upon 3 cycles of mixing, done by the robot itself.
The robot incubates the plates for 60 minutes at room temperature, and then stops the reaction by pipetting 70 μl of dowex resin suspension into the reaction mix. Three cycles of mixing are done immediately after the addition of the resin.
Another mixing cycle is performed after all the plates are stopped, this time using normal tips: the plates are then allowed to rest for about one hour in order to maximize ATP capture. At this point, 20 μl of the supernatant are transferred into 384-Optiplates (Perkin-Elmer), with 70 μl of Microscint 40 (Perkin-Elmer); after 5 min of orbital shaking the plates are read on a Perkin-Elmer Top Count radioactivity counter.
Data are analysed by an internally customized version of the SW package “Assay Explorer” that provides either % inhibition for primary assays or sigmoidal fittings of the ten-dilutions curves for IC50 determination, for the secondary assays/hit confirmation routines.
The compound `NC[C@H](Cc1ccccc1)NC(=O)c1cc2c(n1CC(F)(F)F)-c1ccncc1CC2` [L9, N-[(1S)-2-Amino-1-benzylethyl]-1-(2,2,2-trifluoroethyl)-4,5-dihydro-1H-pyrrolo[2,3-f]isoquinoline-2-carboxamide] had a half-inhibitory concentration (IC50) of less than 500 nM.

With `NC[C@H](Cc1ccccc1)NC(=O)c1cc2c([nH]1)-c1ccncc1CC2` [L6, N-[(1S)-2-Amino-1-benzylethyl]-4,5-dihydro-1H-pyrrolo[2,3-f]isoquinoline-2-carboxamide], the IC50 was less than 500 nM.

Take `NC[C@H](Cc1ccccc1)NC(=O)c1c[nH]c2c1CCc1cnccc1-2` [E15, N-[(1S)-2-Amino-1-benzylethyl]-4,5-dihydro-1H-pyrrolo[2,3-f]isoquinoline-3-carboxamide]: the concentration for half-maximal inhibition (IC50) was less than 500 nM.

As for `CC(C)(C)OC(=O)NC[C@H](Cc1ccccc1)NC(=O)c1cn(CC(F)(F)F)c2c1CCc1cnccc1-2` [E12, Tert-Butyl [(2S)-3-phenyl-2-({[1-(2,2,2-trifluoroethyl) -4,5-dihydro-1H-pyrrolo[2,3-f]isoquinolin-3-yl]carbonyl}amino)propyl]carbamate], the IC50 was less than 500 nM.

`NC[C@H](Cc1ccccc1)NC(=O)c1cn(CCO)c2c1CCc1cnccc1-2` [E21, N-[(1S)-2-Amino-1-benzylethyl]-1-(2-hydroxyethyl)-4,5-dihydro-1H-pyrrolo[2,3-f]isoquinoline-3-carboxamide]: the concentration for half-maximal inhibition (IC50) was less than 500 nM.

Compound `NC[C@H](Cc1ccccc1)NC(=O)c1cn(CC(F)(F)F)c2c1CCc1cnccc1-2` [E14, N-[(1S)-2-Amino-1-benzylethyl]-1-(2,2,2-trifluoroethyl)-4,5-dihydro-1H-pyrrolo[2,3-f]isoquinoline-3-carboxamide] returned a half-inhibitory concentration (IC50) of less than 500 nM.

The record behind these values is US8207180B2, “Tricyclic indoles and (4,5-dihydro) indoles” (Nerviano Medical Sciences S.R.L., priority 2006, dated 2012).
